The source of these data is patent US20240285784A1, “PEPTIDIC CONJUGATES OF SN38 USEFUL IN THE TREATMENT OF CANCER” (FUNDACIÓ INSTITUT DE RECERCA BIOMÈDICA (IRB BARCELONA), priority 2020, published 2024).

Series [1] deals with patient-derived xenograft of neuroblastoma HSJD-NB-013. To be noted: 6 doses of 100 mg/kg intravenous at days 1, 2, 3, 4, 5 and 8; one mouse, two tumors; until day 44.
A short description of series [2]: Evaluation of solubility in water. Format: physicochemical. To be noted: at 1 mg/mL. As for the experimental part:
25 mg of SN38-linker A-MiniAp4 were dissolved in H2O, showing a completely transparent solution. This means that SN38-linker A-MiniAp4 has a solubility in water higher than 5 mg/mL, more than 400-fold the solubility in water described for SN38 (Mol. Pharmaceutics, 2016, 13, 379-390).

The structures appear in SMILES notation. *1 amine or outer side, *2 acyl side, *3 side chain or, on linkers, in order; H or OH if unused. Where a SMILES comes first, the peptide text is derived from it. Bridges are numbered along the chain shown (N, C = ends). [ ]: non-standard residue; d: D form. The star is where a group is joined. ξ: configuration not given here. X5 = CCc1c2c(nc3ccc(OC(=O)CCCCn4cc(CCCC(=O)NCCCOCCOCCOCCSCN*)nn4)cc13)-c1cc3c(c(=O)n1C2)COC(=O)[C@]3(O)CC; X4 = CC(O)CC(N[*:1])C(=O)[*:2]; Suc = O=C(CCC(=O)[*:2])[*:1]; ξE = NC(CCC(=O)O)C(=O)O; ξD = NC(CC(=O)O)C(=O)O; ξK = NCCCCC(N)C(=O)O; ξT = CC(O)C(N)C(=O)O; ξDap = NCC(N)C(=O)O; ξP = O=C(O)C1CCCN1; ξA = CC(N)C(=O)O

Take `CCc1c2c(nc3ccc(OC(=O)CCCCn4cc(CCCC(=O)NCCCOCCOCCOCCSCNC(=O)CCC(=O)NC5CNC(=O)CC(C(N)=O)NC(=O)C(CC(C)O)NC(=O)C(C)NC(=O)C(C(C)O)NC(=O)C(CCC(=O)O)NC(=O)C6CCCN6C(=O)C(C)NC(=O)C(CCCCN)NC5=O)nn4)cc13)-c1cc3c(c(=O)n1C2)COC(=O)[C@]3(O)CC` (some centres unmarked) [G2B-003 (Ic)] ({X5-Suc}-[ξDap][ξK][ξA][ξP][ξE][ξT][ξA][X4][ξD]-NH2; lactam 1-9): the “antitumor response (tumor volume)” value in series [1] is “measurable and long lasting antitumor response”. In series [2], the solubility in water entry is “good solubility”.
